The test system of this assay is Type 1 collagen synthesis. The assay is described as follows: Confocal fluorescence imaging of Type 1 collagen synthesis in cells expressing COLa1(I)/mTagBFP2 + WT COLa2(I)/mEmerald. It counts as cell-based. The settings on record: fixed human lung fibroblasts expressing COLa1(I)/mTagBFP2+WT COLa2(I)/mEmerald; treated for 24 hours vs untreated cell. Here is the method:
Three combinations of adenoviruses were used: • COLα1(I)/mTagBFP2 and WT COLα2(I)/mEmerald: images normal, regulated Type 1 collagen synthesis; • COLα1(I)/mTagBFP2 and MUT COLα2(I)/mEmerald: images collagen synthesis without regulation; and • COLα1(I)/mTagBFP2 and COLα2(I)/mEmeraldΔC: images absence of productive synthesis.
Adenoviruses were mixed in a ratio determined by the viral titer and added to human lung fibroblasts in culture. After 48 hours the cells were either fixed in 3.7% formalin, mounted on glass slides and imaged or they were directly imaged as live cells.
Confocal imaging of cells was performed either by Zeiss LSM 880 confocal microscope or Nikon Eclipse Ti laser spin disk confocal microscope in blue and green channels.
The drug used in the confocal microscopy imaging experiments was compound 60D17 of U.S. Pat. No. 8,729,090, which is incorporated by reference. Compound 60D17 has the following formula.

Take `COC(=O)CNC(=O)c1cc2c(=O)n3cccc(C)c3nc2n1C` [compound 60D17]: the “Effect on Type 1 collagen biosynthesis (confocal images, FIG. 4)” value is “perturbed”.

For the origin of these results see US20180188266A1, “Characterization of Type 1 Collagen Synthesis By Fluorescence Imaging and Related Drug Screening Technique” (Florida State University Research Foundation, Inc., priority 2017, published 2018).
